Assay results: ChEMBL document CHEMBL5226352, “Inhibition of AlkB Nucleic Acid Demethylases: Promising New Epigenetic Targets” (J Med Chem, 2021)
Each block holds one compound with its values, some of them ahead of it.

Experiments:
[1] = Oral bioavailability in rat; type: ADME, organism-based; conditions: in vivo
[2] = target: T1, Alpha-ketoglutarate-dependent dioxygenase FTO (Homo sapiens, UniProt Q9C0B1); test: Inhibition of human FTO (31 to 505 residues) demethylase activity using 15-mer ssRNA with CUUGUCA(m6A)CAGCAGA sequence as substrate incubated for 0.5 hrs by LC-MS/MS analysis
T1 sequence (Q9C0B1 whole entry, the tested form may be a part): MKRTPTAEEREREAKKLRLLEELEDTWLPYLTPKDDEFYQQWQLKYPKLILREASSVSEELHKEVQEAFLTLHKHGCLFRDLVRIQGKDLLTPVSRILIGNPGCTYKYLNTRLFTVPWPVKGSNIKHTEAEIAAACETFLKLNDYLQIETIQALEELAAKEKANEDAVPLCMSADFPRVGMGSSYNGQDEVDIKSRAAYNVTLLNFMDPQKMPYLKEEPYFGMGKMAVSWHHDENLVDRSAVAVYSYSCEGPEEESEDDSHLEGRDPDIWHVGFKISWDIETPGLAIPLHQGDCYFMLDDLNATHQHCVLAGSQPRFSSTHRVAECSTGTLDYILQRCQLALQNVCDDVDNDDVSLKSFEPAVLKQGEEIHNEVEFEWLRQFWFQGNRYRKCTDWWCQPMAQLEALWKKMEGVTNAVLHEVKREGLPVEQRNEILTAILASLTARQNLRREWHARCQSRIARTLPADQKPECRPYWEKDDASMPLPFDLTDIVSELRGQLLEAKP

[3] = target: T1, Alpha-ketoglutarate-dependent dioxygenase FTO; test: Inhibition of N-terminal 31 residues truncated FTO (unknown origin) demethylase activity using m6A containing ssRNA as substrate incubated for 1 hr by LC-MS analysis
RNA demethylase ALKBH5 [4] = target: T2, RNA demethylase ALKBH5 (Homo sapiens, UniProt Q6P6C2); test: Inhibition of human ALKBH5 (66 to 292 residues) demethylase activity using 49 nt methylated ssDNA as substrate incubated for 2 hrs by GelRed staining based restriction endonuclease digestion assay
T2 sequence (Q6P6C2 whole entry, the tested form may be a part): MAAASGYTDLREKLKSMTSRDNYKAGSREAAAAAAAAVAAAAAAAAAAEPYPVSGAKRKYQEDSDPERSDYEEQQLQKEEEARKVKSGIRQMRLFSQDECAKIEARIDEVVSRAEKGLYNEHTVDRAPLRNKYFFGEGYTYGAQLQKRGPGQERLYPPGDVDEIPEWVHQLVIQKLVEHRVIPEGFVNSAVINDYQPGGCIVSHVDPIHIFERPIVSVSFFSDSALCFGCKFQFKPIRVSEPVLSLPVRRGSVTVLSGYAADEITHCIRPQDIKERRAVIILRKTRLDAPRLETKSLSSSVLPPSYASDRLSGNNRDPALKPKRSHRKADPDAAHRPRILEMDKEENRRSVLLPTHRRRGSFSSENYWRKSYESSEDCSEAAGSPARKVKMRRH

RNA demethylase ALKBH5 [5] = target: T2, RNA demethylase ALKBH5; test: Inhibition of human ALKBH5 (74 to 294 residues) expressed in Escherichia coli BL21(DE3) V2R-pRARE cells using biotin labeled m6A-ss-RNA with UACACUCGAUCUGG(m6A)CUAAAGCUGCUC sequence as substrate incubated for 1 hr by TopCount scintillation counting method
[6] = target: T3, Alpha-ketoglutarate-dependent dioxygenase AlkB (Escherichia coli (strain K12), UniProt P05050); test: Inhibition of Escherichia coli AlkB DNA repair activity using 1-methyladenine with GC-1meA-AGGTCCCGTAGTGCG sequence as substrate by FDH coupled assay
T3 sequence (P05050 whole entry): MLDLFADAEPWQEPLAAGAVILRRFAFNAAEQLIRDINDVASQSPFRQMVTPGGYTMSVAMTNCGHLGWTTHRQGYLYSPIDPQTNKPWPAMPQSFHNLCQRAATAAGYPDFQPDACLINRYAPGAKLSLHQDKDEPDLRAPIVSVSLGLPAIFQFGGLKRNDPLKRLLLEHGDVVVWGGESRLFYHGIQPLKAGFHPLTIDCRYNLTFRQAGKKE

[7] = target: T4, Alpha-ketoglutarate-dependent dioxygenase alkB homolog 3 (Homo sapiens, UniProt Q96Q83); test: Inhibition of ALKBH3 (unknown origin) using 3-methyl cytosine oligo DNA as substrate incubated for 1 hr by SYBR green dye based RT-PCR analysis
T4 sequence (Q96Q83 whole entry): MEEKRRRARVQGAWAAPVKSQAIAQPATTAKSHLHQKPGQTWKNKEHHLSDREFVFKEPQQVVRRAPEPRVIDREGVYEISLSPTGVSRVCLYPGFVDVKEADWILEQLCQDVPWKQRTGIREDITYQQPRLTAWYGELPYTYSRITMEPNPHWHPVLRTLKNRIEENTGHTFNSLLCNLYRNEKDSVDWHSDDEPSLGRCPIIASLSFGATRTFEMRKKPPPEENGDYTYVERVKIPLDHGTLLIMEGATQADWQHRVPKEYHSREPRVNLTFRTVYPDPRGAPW

[8] = target: T1, Alpha-ketoglutarate-dependent dioxygenase FTO; test: Inhibition of FTO (unknown origin) demethylation activity
[9] = target: T5, DNA oxidative demethylase ALKBH2 (Homo sapiens, UniProt Q6NS38); test: Inhibition of human ALKBH2 by HPLC analysis
T5 sequence (Q6NS38 whole entry): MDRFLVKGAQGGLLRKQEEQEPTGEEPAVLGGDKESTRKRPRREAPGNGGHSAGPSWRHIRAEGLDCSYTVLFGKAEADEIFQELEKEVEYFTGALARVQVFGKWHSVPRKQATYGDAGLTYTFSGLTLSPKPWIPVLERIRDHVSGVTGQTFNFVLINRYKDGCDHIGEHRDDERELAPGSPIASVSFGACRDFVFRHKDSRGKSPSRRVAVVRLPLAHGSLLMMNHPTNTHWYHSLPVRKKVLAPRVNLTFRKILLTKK

[10] = target: T3, Alpha-ketoglutarate-dependent dioxygenase AlkB; test: Inhibition of Escherichia coli AlkB by HPLC analysis
[11] = target: T4, Alpha-ketoglutarate-dependent dioxygenase alkB homolog 3; test: Inhibition of human ALKBH3 by HPLC analysis
[12] = target: T3, Alpha-ketoglutarate-dependent dioxygenase AlkB; test: Inhibition of Escherichia coli AlkB-mediated demethylation using 40-mer single N3-meC containing ssDNA as substrate preincubated for 1 hr followed by substrate addition by fluorescence based assay
[13] = target: T6, Alpha-ketoglutarate-dependent dioxygenase alkB homolog 3 (Homo sapiens) (UniProt Q96Q83); test: Inhibition of ALKBH3 (unknown origin) at 50 uM relative to control
T6 sequence (whole entry): T4 sequence (Q96Q83 whole entry)

RNA demethylase ALKBH5 [14] = target: T2, RNA demethylase ALKBH5; test: Inhibition of N-terminal His-tagged human ALKBH5 (66 to 292 residues)
[15] = target: T5, DNA oxidative demethylase ALKBH2; test: Inhibition of human ALKBH2 demethylase activity by restriction endonuclease digestion assay
[16] = target: T4, Alpha-ketoglutarate-dependent dioxygenase alkB homolog 3; test: Inhibition of human ALKBH3 demethylase activity by restriction endonuclease digestion assay
[17] = target: T1, Alpha-ketoglutarate-dependent dioxygenase FTO; test: Inhibition of N-terminal 31 residues truncated His-tagged human FTO demethylase activity expressed in Escherichia coli BL21(DE3) cells

Compound: COc1cc2c(cc1Cl)C(C)(C)CC(C)(c1cc(Cl)c(O)cc1O)O2 (configuration not stated)
IC50 [2]: 39.2 µM

Compound: O=C1OC2(c3ccc(O)cc3Oc3cc(O)ccc32)c2ccccc21 [FLUORESCEIN]
IC50 [3]: 3.23 µM
IC50 (RNA demethylase ALKBH5 [4]): > 100 µM

Compound: CCN(CC)C(=O)/C(C#N)=C/c1cc(O)c(O)c([N+](=O)[O-])c1 [ENTACAPONE]
IC50 [8]: 3.5 µM

Compound: O=C(O)c1cc(O)c2c(c1)C(=O)c1cccc(O)c1C2=O [RHEIN]
IC50 [9]: 9.1 µM
IC50 [10]: 12.7 µM
IC50 [11]: 5.3 µM

Compound: O=C1c2ccc(-c3ccccc3)cc2C(NC2CCCCC2)C1Cl (configuration not stated)
IC50 [12]: 19.4 µM
inhibition [13]: 0%

Second part, the compound after the results:

bioavailability [1]: 7.2%
Compound: Cc1ccc2[nH]c(-n3nc(C)cc3O)nc2c1

IC50 (RNA demethylase ALKBH5 [5]): 2.9 µM
IC50 [6]: 10.2 µM
Compound: O=C(O)c1ccc(O)c2ncccc12

IC50 [7]: 2.9 µM
Compound: Cc1nn(-c2nc3cc(F)ccc3[nH]2)c(O)c1-c1ccccc1

IC50 (RNA demethylase ALKBH5 [14]): > 100 µM
IC50 [15]: > 100 µM
IC50 [16]: > 100 µM
IC50 [17]: 8 µM
Compound: Cc1ccc(Cl)c(Nc2ccccc2C(=O)O)c1Cl [MECLOFENAMIC ACID]
